In patent US10336761B2, “TGFβ receptor antagonist” (BRISTOL-MYERS SQUIBB COMPANY, priority 2015, dated 2019):
pIC50: −log10 of the molar value.

Each compound was assayed against HIS-TGFβR1 T204D (Homo sapiens (Human), UniProt P36897, T204D) (assay: HTRF probe-displacement assay, HIS-TGFβR1 T204D). Details: 1 hour at room temperature.
Sequence of HIS-TGFβR1 T204D (P36897 34-503 T204D): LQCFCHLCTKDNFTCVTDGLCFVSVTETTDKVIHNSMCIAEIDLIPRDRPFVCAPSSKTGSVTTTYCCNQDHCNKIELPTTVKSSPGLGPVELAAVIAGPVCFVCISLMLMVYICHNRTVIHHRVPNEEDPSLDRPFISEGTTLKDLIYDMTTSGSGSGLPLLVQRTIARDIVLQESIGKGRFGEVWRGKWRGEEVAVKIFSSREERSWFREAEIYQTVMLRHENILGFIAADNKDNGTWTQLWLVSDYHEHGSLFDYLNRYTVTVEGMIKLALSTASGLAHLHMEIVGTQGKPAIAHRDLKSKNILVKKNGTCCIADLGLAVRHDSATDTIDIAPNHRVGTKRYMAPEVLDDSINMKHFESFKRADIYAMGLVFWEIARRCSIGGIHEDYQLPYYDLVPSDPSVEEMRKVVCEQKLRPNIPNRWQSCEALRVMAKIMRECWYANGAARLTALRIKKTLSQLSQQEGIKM
Assay type: binding
For Cc1cccc(-c2nc(Nc3ccncc3C(=O)NCCCN3CCN(C)CC3)c3cccn3n2)n1 [Example 160, N-[3-(4-methylpiperazin-1-yl)propyl]-4-{[2-(6-methylpyridin-2-yl)pyrrolo[2,1-f][1,2,4]triazin-4-yl]amino}pyridine-3-carboxamide], the pIC50 was 8.46.
Compound COc1cccc(-c2nc(Nc3ccncc3F)c3cc(C(C)(C)O)cn3n2)n1 [Example 39, 2-{4-[(3-fluoropyridin-4-yl)amino]-2-(6-methoxypyridin-2-yl)pyrrolo[2,1-f][1,2,4]triazin-6-yl}propan-2-ol] has a pIC50 of 5.80.
In the case of CC1(NCc2ccn3nc(-c4ccccn4)nc(Nc4ccncc4F)c23)CCOCC1 [Example 242, 3-fluoro-N-(5-{[(4-methyloxan-4-yl)amino]methyl}-2-(pyridin-2-yl)pyrrolo[2,1-f][1,2,4]triazin-4-yl)pyridin-4-amine], the pIC50 was over 9.12.
COc1cccc(-c2nc(Nc3ccncc3)c3c(Cl)ccn3n2)n1 [Example 91, N-[5-chloro-2-(6-methoxypyridin-2-yl)pyrrolo[2,1-f][1,2,4]triazin-4-yl]pyridin-4-amine] showed a pIC50 of 7.31.
O=C(NCCN1CCCCC1)c1cnccc1Nc1nc(-c2ccccn2)nn2cccc12 [Example 144, N-[2-(piperidin-1-yl)ethyl]-4-{[2-(pyridin-2-yl)pyrrolo[2,1-f][1,2,4]triazin-4-yl]amino}pyridine-3-carboxamide] showed a pIC50 of 7.60.
CN1CCN(Cc2ccn3nc(-c4ccccn4)nc(Nc4ccncc4F)c23)CC1 [Example 127, 3-fluoro-N-{5-[(4-methylpiperazin-1-yl)methyl]-2-(pyridin-2-yl)pyrrolo[2,1-f][1,2,4]triazin-4-yl}pyridin-4-amine] gave a pIC50 of 8.04.
O=C(c1cnccc1Nc1nc(-c2cccc(C(F)F)n2)nn2cccc12)N1CCC(F)(F)CC1 [Example 203, N-{2-[6-(difluoromethyl)pyridin-2-yl]pyrrolo[2,1-f][1,2,4]triazin-4-yl}-3-(4,4-difluoropiperidine-1-carbonyl)pyridin-4-amine] gave a pIC50 of 6.12.
COc1cccc(-c2nc(Nc3ccncc3NC(C)=O)c3cccn3n2)n1 [Example 47, N-(4-{[2-(6-methoxypyridin-2-yl)pyrrolo[2,1-f][1,2,4]triazin-4-yl]amino}pyridin-3-yl)acetamide] showed a pIC50 of 6.74.
Work on Fc1cnccc1Nc1nc(-c2ccccn2)nn2ccc(CN3CCOCC3)c12 [Example 290, 3-fluoro-N-[5-(morpholin-4-ylmethyl)-2-(pyridin-2-yl)pyrrolo[2,1-f][1,2,4]triazin-4-yl]pyridin-4-amine] yielded a pIC50 of 8.92.
Fc1cnccc1Nc1nc(-c2ccccn2)nn2ccc(CNCC3CCC3)c12 [Example 271, N-(5-{[(cyclobutylmethyl)amino]methyl}-2-(pyridin-2-yl)pyrrolo[2,1-f][1,2,4]triazin-4-yl)-3-fluoropyridin-4-amine] was tested, and the pIC50 was 8.92.
COc1cccc(-c2nc(Nc3ccnc(NCC(C)(C)O)c3)c3cccn3n2)n1 [Example 133, 1-[(4-{[2-(6-methoxypyridin-2-yl)pyrrolo[2,1-f][1,2,4]triazin-4-yl]amino}pyridin-2-yl)amino]-2-methylpropan-2-ol] gave a pIC50 of 5.48.
For COC(=O)Nc1cc(Nc2nc(-c3cccc(C(F)(F)F)n3)nn3cccc23)ccn1 [Example 312, Methyl N-[4-({2-[6-(trifluoromethyl)pyridin-2-yl]pyrrolo[2,1-f][1,2,4]triazin-4-yl}amino)pyridin-2-yl]carbamate], the pIC50 was 9.06.
O=C(NCCN1CCCCC1)c1cnccc1Nc1nc(-c2cccc(C(F)(F)F)n2)nn2cccc12 [Example 171, N-[2-(piperidin-1-yl)ethyl]-4-({2-[6-(trifluoromethyl)pyridin-2-yl]pyrrolo[2,1-f][1,2,4]triazin-4-yl}amino)pyridine-3-carboxamide] showed a pIC50 of 6.92.
Compound CC(=O)Nc1cc(Nc2nc(-c3ccc(F)c(C)n3)nn3cccc23)ccn1 [Example 19, N-(4-{[2-(5-fluoro-6-methylpyridin-2-yl)pyrrolo[2,1-f][1,2,4]triazin-4-yl]amino}pyridin-2-yl)acetamide] has a pIC50 of 9.08.
Work on COc1cccc(-c2nc(Nc3ccncc3F)c3cc(/C=C/CCO)cn3n2)n1 [Example 211, (3E)-4-{4-[(3-fluoropyridin-4-yl)amino]-2-(6-methoxypyridin-2-yl)pyrrolo[2,1-f][1,2,4]triazin-6-yl}but-3-en-1-ol] yielded a pIC50 of 7.52.
Compound O=C(CCN1CCC(O)CC1)Nc1cc(Nc2nc(-c3cccc(C(F)(F)F)n3)nn3cccc23)ccn1 [Example 340, 3-(4-hydroxypiperidin-1-yl)-N-[4-({2-[6-(trifluoromethyl)pyridin-2-yl]pyrrolo[2,1-f][1,2,4]triazin-4-yl}amino)pyridin-2-yl]propanamide] has a pIC50 of 8.92.
NCCCNCc1ccn2nc(-c3ccccn3)nc(Nc3ccncc3F)c12 [Example 286, N-(5-{[(3-aminopropyl)amino]methyl}-2-(pyridin-2-yl)pyrrolo[2,1-f][1,2,4]triazin-4-yl)-3-fluoropyridin-4-amine] showed a pIC50 of 8.54.
COc1cccc(-c2nc(Nc3ccncc3F)c3c(CCN4CCOCC4)ccn3n2)n1 [Example 113, 3-fluoro-N-[2-(6-methoxypyridin-2-yl)-5-[2-(morpholin-4-yl)ethyl]pyrrolo[2,1-f][1,2,4]triazin-4-yl]pyridin-4-amine] was tested, and the pIC50 was 6.92.
CN1CCN(CCCNC(=O)c2cnccc2Nc2nc(-c3cccc(C(F)F)n3)nn3cccc23)CC1 [Example 176, 4-({2-[6-(difluoromethyl)pyridin-2-yl]pyrrolo[2,1-f][1,2,4]triazin-4-yl}amino)-N-[3-(4-methylpiperazin-1-yl)propyl]pyridine-3-carboxamide] was tested, and the pIC50 was 8.07.
Compound CN1CCN(Cc2ccn3nc(-c4ccc(F)cn4)nc(Nc4ccncc4F)c23)CC1 [Example 234, 3-fluoro-N-[2-(5-fluoropyridin-2-yl)-5-[(4-methylpiperazin-1-yl)methyl]pyrrolo[2,1-f][1,2,4]triazin-4-yl]pyridin-4-amine] has a pIC50 of 8.52.
Fc1cnccc1Nc1nc(-c2ccccn2)nn2ccc(CNCC3CCCO3)c12 (stereo not shown) [Example 247, 3-fluoro-N-(5-{[(oxolan-2-ylmethyl)amino]methyl}-2-(pyridin-2-yl)pyrrolo[2,1-f][1,2,4]triazin-4-yl)pyridin-4-amine] gave a pIC50 of 9.00.
COc1cccc(-c2nc(Nc3ccncc3F)c3cc(CNCCCN4CCS(=O)(=O)CC4)cn3n2)n1 [Example 209, 4-{3-[({4-[(3-fluoropyridin-4-yl)amino]-2-(6-methoxypyridin-2-yl)pyrrolo[2,1-f][1,2,4]triazin-6-yl}methyl)amino]propyl}-1,4-thiomorpholine-1,1-dione] showed a pIC50 of 5.11.
In the case of COc1cccc(-c2nc(Nc3ccncc3F)c3c(OCCN4CCCC4)ccn3n2)n1 [Example 45, 3-fluoro-N-[2-(6-methoxypyridin-2-yl)-5-[2-(pyrrolidin-1-yl)ethoxy]pyrrolo[2,1-f][1,2,4]triazin-4-yl]pyridin-4-amine], the pIC50 was 5.31.
Work on O=c1[nH]c2ccccc2n1C1CCN(Cc2ccn3nc(-c4ccccn4)nc(Nc4ccncc4F)c23)CC1 [Example 278, 1-[1-({4-[(3-fluoropyridin-4-yl)amino]-2-(pyridin-2-yl)pyrrolo[2,1-f][1,2,4]triazin-5-yl}methyl)piperidin-4-yl]-2,3-dihydro-1H-1,3-benzodiazol-2-one] yielded a pIC50 of 8.74.
CN1CCC(CCNCc2ccn3nc(-c4ccccn4)nc(Nc4ccncc4F)c23)CC1 [Example 303, 3-fluoro-N-[5-({[2-(1-methylpiperidin-4-yl)ethyl]amino}methyl)-2-(pyridin-2-yl)pyrrolo[2,1-f][1,2,4]triazin-4-yl]pyridin-4-amine] showed a pIC50 of 8.27.
Compound COc1cccc(-c2nc(Nc3ccncc3F)c3c(CN4CCN(C)CC4)ccn3n2)n1 [Example 121, 3-fluoro-N-[2-(6-methoxypyridin-2-yl)-5-[(4-methylpiperazin-1-yl)methyl]pyrrolo[2,1-f][1,2,4]triazin-4-yl]pyridin-4-amine] has a pIC50 of 7.66.
CCC(=O)Nc1cc(Nc2nc(-c3cccc(C(F)(F)F)n3)nn3cccc23)ccn1 [Example 313, N-[4-({2-[6-(trifluoromethyl)pyridin-2-yl]pyrrolo[2,1-f][1,2,4]triazin-4-yl}amino)pyridin-2-yl]propanamide] gave a pIC50 of 9.05.
CC(=O)Nc1cc(Nc2nc(-c3ccccn3)nn3ccc(CN4CCN(CCO)CC4)c23)ccn1 [Example 250, N-{4-[(5-{[4-(2-hydroxyethyl)piperazin-1-yl]methyl}-2-(pyridin-2-yl)pyrrolo[2,1-f][1,2,4]triazin-4-yl)amino]pyridin-2-yl}acetamide] was tested, and the pIC50 was 8.92.
Work on Fc1cc(Nc2nc(-c3ccccn3)nn3cccc23)ccn1 [Example 55, 2-fluoro-N-[2-(pyridin-2-yl)pyrrolo[2,1-f][1,2,4]triazin-4-yl]pyridin-4-amine] yielded a pIC50 of 7.16.
COc1cccc(-c2nc(Nc3ccncc3F)c3c(CNC[C@@H](F)C(C)(C)O)ccn3n2)n1 [Example 120, (3R)-3-fluoro-4-[({4-[(3-fluoropyridin-4-yl)amino]-2-(6-methoxypyridin-2-yl)pyrrolo[2,1-f][1,2,4]triazin-5-yl}methyl)amino]-2-methylbutan-2-ol] showed a pIC50 of 7.01.
With COc1cccc(-c2nc(Nc3ccncc3F)c3c(C(O)CN4CCN(C)CC4)ccn3n2)n1 (stereo not shown) [Example 128, 1-{4-[(3-fluoropyridin-4-yl)amino]-2-(6-methoxypyridin-2-yl)pyrrolo[2,1-f][1,2,4]triazin-5-yl}-2-(4-methylpiperazin-1-yl)ethan-1-ol] the pIC50 was 6.02.
With Cc1cccc(-c2nc(Nc3ccncc3C(=O)N3CCOCC3)c3cccn3n2)n1 [Example 163, N-[2-(6-methylpyridin-2-yl)pyrrolo[2,1-f][1,2,4]triazin-4-yl]-3-(morpholine-4-carbonyl)pyridin-4-amine] the pIC50 was 7.52.
With COc1cccc(-c2nc(Nc3ccnc(F)c3)c3c(C)ccn3n2)n1 [Example 96, 2-fluoro-N-[2-(6-methoxypyridin-2-yl)-5-methylpyrrolo[2,1-f][1,2,4]triazin-4-yl]pyridin-4-amine] the pIC50 was 6.19.
CCOC(=O)CNC(=O)c1cnccc1Nc1nc(-c2cccc(C(F)F)n2)nn2cccc12 [Example 190, Ethyl 2-{[4-({2-[6-(difluoromethyl)pyridin-2-yl]pyrrolo[2,1-f][1,2,4]triazin-4-yl}amino)pyridin-3-yl]formamido}acetate] showed a pIC50 of 7.66.
